Results from patent publication US20250361210A1, “3,4-DIHYDROQUINOLIN-2(1H)-ONE COMPOUND” (Kissei Pharmaceutical Co., Ltd., priority 2022, published 2025).
pIC50: −log10 of the molar value.

Target: T1, TSHR (Mus musculus, UniProt P47750)
T1 construct: host or cells: mice (in vivo)
T1 sequence (P47750 22-764): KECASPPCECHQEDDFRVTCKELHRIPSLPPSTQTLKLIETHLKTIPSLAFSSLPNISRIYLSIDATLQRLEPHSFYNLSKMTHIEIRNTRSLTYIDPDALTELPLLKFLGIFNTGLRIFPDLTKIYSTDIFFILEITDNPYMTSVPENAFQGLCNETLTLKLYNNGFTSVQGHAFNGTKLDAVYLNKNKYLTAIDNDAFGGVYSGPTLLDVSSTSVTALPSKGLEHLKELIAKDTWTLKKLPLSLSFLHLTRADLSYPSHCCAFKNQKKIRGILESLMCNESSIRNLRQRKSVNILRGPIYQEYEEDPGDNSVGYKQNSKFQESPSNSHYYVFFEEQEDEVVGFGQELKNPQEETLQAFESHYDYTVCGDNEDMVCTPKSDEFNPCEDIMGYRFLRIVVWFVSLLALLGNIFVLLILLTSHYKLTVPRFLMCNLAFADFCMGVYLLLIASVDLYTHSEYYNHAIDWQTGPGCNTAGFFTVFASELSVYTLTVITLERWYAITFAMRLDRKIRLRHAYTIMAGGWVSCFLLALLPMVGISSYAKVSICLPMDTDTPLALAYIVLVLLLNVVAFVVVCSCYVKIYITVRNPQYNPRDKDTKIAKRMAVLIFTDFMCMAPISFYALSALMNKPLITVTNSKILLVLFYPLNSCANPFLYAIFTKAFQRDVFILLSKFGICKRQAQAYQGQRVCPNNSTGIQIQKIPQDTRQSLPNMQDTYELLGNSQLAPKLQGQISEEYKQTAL
Test: not given
Conditions: mice in which TRH has been administered and mice in which thyroid stimulating antibodies M22 has been administered; cited from earlier work
In the case of `COc1ccc(C2Nc3ccccc3C(=O)N2Cc2ccco2)cc1COc1c(C)cc(NC(C)=O)cc1C` (stereo not drawn) [NCGC00242364], the “blood T4 concentration” value is given as “blood T4 concentration lowering effect”.

Target: T2, human TSHR (Homo sapiens, UniProt P16473)
T2 construct: expressed in transfected cells
T2 sequence (P16473 21-764): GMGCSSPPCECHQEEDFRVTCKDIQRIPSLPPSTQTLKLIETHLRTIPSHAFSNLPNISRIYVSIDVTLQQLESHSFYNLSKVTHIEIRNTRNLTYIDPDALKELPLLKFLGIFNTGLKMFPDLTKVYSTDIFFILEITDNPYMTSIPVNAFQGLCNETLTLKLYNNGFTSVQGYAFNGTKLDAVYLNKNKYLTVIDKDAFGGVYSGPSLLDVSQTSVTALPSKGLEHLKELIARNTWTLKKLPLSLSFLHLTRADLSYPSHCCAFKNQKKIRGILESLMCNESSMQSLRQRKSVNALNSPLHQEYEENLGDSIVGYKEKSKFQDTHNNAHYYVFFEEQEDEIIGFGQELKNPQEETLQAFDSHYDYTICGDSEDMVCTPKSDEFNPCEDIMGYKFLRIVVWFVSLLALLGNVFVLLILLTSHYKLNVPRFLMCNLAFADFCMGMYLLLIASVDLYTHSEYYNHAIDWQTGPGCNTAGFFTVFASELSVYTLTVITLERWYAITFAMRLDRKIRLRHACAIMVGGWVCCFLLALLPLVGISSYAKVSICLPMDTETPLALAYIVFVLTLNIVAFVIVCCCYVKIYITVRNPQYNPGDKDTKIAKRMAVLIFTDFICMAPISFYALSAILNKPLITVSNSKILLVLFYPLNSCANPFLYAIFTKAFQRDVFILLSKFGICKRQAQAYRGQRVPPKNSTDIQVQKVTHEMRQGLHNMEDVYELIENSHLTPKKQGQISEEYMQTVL
Test: Antagonist activity using TSH-induced cAMP production in human TSHR-stably expressing CHO cells
Format: cell-based
Conditions: human TSH 50 ng/mL
Procedure: Measurement of Antagonist Activity Using TSH-Induced cAMP Production in Human TSHR-Stably Expressing CHO Cells as an Indicator
The human TSHR gene sequence (reference number NM_000369.2) was inserted into the multicloning site of pcDNA3.1(+). The constructed plasmid vector was introduced into CHO cells using the lipofection method to establish human TSHR-stably expressing CHO cells. The obtained cells were seeded at 5×10^4 cells/well in a 96-well poly-D-lysine-coated plate, and cultured in an F12 culture medium containing 10% FBS, 400 μg/mL of G418, 50 U/mL of penicillin and 50 μg/mL of streptomycin under conditions of 37° C. and 5% CO2 for 1 day. After the culture medium was removed, the cells were washed twice with 100 μL of an assay buffer solution (Hanks' Balanced Salt Solution containing 20 mM HEPES and 1 mM IBMX) per well. 30 μL of a test compound-containing assay buffer solution was added to the well and incubated at room temperature for 15 minutes. Then, 30 μL of an assay buffer solution containing human TSH (final concentration 50 ng/mL, R&D Systems, Inc.) was added, and incubated at 37° C. for 1 hour. The supernatant was removed, a Lysis and Detection Buffer 2 (Cisbio) was added, and the mixture was incubated at room temperature for 1 hour to prepare a cell lysate. According to the instruction manual of a cAMP Gs HiRange kit (Cisbio), the cell lysate, d2-labeled cAMP and anti-cAMP Europium Cryptate labeled antibodies (Cisbio) were reacted in a 384-well white microplate. Then, a fluorescence intensity ratio (measurement wavelength 665 nm/620 nm) was measured using a multi-plate reader (PHERAstar FSX, BMG LABTECH, Japan). The fluorescence intensity ratio of each sample was converted to a cAMP content using a standard curve. The cAMP content was converted as a percentage of the control value to calculate the cAMP production rate. The CAMP production rate was plotted against the test compound concentration using Prism (Graph Pad Software Inc.) to calculate the IC50 value. The IC50 of each test compound is shown in the above tables. In the tables, IC50<0.5 μM: A, 0.5 μM≤IC50<3.0 μM: B, 3.0 μM≤IC50<30 μM: C are shown.
For `CN1C(=O)[C@H](NC(N)=O)Cc2ccc(Cl)c(Oc3cc(F)ccc3F)c21` [Example 69, ((3R)-7-chloro-8-(2,5-difluorophenoxy)-1-methyl-2-oxo-1,2,3,4-tetrahydroquinolin-3-yl)urea], the pIC50 was > 6.30. In the case of `Cc1ccc2c(c1Oc1cc(F)ccc1C(F)F)N(C)C(=O)[C@H](NC(N)=O)C2` [Example 70, ((3R)-8-(2-(difluoromethyl)-5-fluorophenoxy)-1,7-dimethyl-2-oxo-1,2,3,4-tetrahydroquinolin-3-yl)urea], the pIC50 was > 6.30. For `CN1C(=O)[C@H](NC(N)=O)Cc2ccc(CO)c(Oc3cc(F)ccc3Cl)c21` [Example 71, ((3R)-8-(2-chloro-5-fluorophenoxy)-7-(hydroxymethyl)-1-methyl-2-oxo-1,2,3,4-tetrahydroquinolin-3-yl)urea], the pIC50 was > 6.30. For `CN1C(=O)[C@H](NC(N)=O)Cc2ccc(C(F)F)c(Oc3cc(F)ccc3Cl)c21` [Example 72, ((3R)-8-(2-chloro-5-fluorophenoxy)-7-(difluoromethyl)-1-methyl-2-oxo-1,2,3,4-tetrahydroquinolin-3-yl)urea], the pIC50 was > 6.30. With `CN1C(=O)[C@H](NC(N)=O)Cc2ccc(CF)c(Oc3cc(F)ccc3Cl)c21` [Example 73, ((3R)-8-(2-chloro-5-fluorophenoxy)-7-(fluoromethyl)-1-methyl-2-oxo-1,2,3,4-tetrahydroquinolin-3-yl)urea] the pIC50 was > 6.30. In the case of `CN1C(=O)[C@H](NC(N)=O)Cc2ccc(C(F)(F)F)c(Oc3cc(F)ccc3Cl)c21` [Example 74, ((3R)-8-(2-chloro-5-fluorophenoxy)-1-methyl-2-oxo-7-(trifluoromethyl)-1,2,3,4-tetrahydroquinolin-3-yl)urea], the pIC50 was > 6.30. For `CN1C(=O)[C@H](NC(N)=O)Cc2ccc(C(C)(F)F)c(Oc3cc(F)ccc3Cl)c21` [Example 75, ((3R)-8-(2-chloro-5-fluorophenoxy)-7-(1,1-difluoroethyl)-1-methyl-2-oxo-1,2,3,4-tetrahydroquinolin-3-yl)urea], the pIC50 was > 6.30. With `CCc1ccc2c(c1Oc1cc(F)ccc1Cl)N(C)C(=O)[C@H](NC(N)=O)C2` [Example 76, ((3R)-8-(2-chloro-5-fluorophenoxy)-7-ethyl-1-methyl-2-oxo-1,2,3,4-tetrahydroquinolin-3-yl)urea] the pIC50 was > 6.30. With `CC(c1ccccc1Cl)c1cccc2c1N(C)C(=O)[C@H](NC(N)=O)C2` (stereo partly drawn) [Example 77, ((3R)-8-(1-(2-chlorophenyl)ethyl)-1-methyl-2-oxo-1,2,3,4-tetrahydroquinolin-3-yl)urea] the pIC50 was > 6.30. With `CC(c1ccccc1C(F)(F)F)c1cccc2c1N(C)C(=O)[C@H](NC(N)=O)C2` (stereo partly drawn) [Example 78, ((3R)-1-Methyl-2-oxo-8-(1-(2-(trifluoromethyl)phenyl)ethyl)-1,2,3,4-tetrahydroquinolin-3-yl)urea] the pIC50 was > 6.30. For `CC(c1cc(F)ccc1Cl)c1cccc2c1N(C)C(=O)[C@H](NC(N)=O)C2` (stereo partly drawn) [Example 79], the pIC50 was > 6.30. For `CNC(=O)N[C@@H]1Cc2ccc(C)c(Oc3cc(F)ccc3Cl)c2N(C)C1=O` [Example 80, 1-((3R)-8-(2-chloro-5-fluorophenoxy)-1,7-dimethyl-2-oxo-1,2,3,4-tetrahydroquinolin-3-yl)-3-methylurea], the pIC50 was > 6.30. With `CC(=O)N[C@@H]1Cc2ccc(C)c(Oc3cc(F)ccc3Cl)c2N(C)C1=O` [Example 81, N-((3R)-8-(2-chloro-5-fluorophenoxy)-1,7-dimethyl-2-oxo-1,2,3,4-tetrahydroquinolin-3-yl)acetamide] the pIC50 was > 6.30. In the case of `Cc1ccc2c(c1Oc1cc(F)ccc1Cl)N(C)C(=O)[C@H](NC(=O)C1CC1)C2` [Example 82], the pIC50 was > 6.30. For `Cc1ccc2c(c1Oc1cc(F)ccc1Cl)N(C)C(=O)[C@H](NC(=O)C(Cl)Cl)C2` [Example 83], the pIC50 was > 6.30. In the case of `CN1C(=O)[C@H](NC(=O)C2CC2)Cc2cccc(Oc3cc(F)ccc3Cl)c21` [Example 84], the pIC50 was > 6.30. For `Cc1ccc2c(c1Oc1cc(F)ccc1Cl)N(C)C(=O)[C@H](NC(=O)CC(F)(F)F)C2` [Example 85, N-((3R)-8-(2-chloro-5-fluorophenoxy)-1,7-dimethyl-2-oxo-1,2,3,4-tetrahydroquinolin-3-yl)-3,3,3-trifluoropropanamide], the pIC50 was > 6.30.
